The values below come from PubChem BioAssay (NCI).

Where “and” joins values, the source holds several entries; their conditions need not be identical. Equal entries are not always repeated.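 All cell lines were grown in 96-well plates and treated with compound for 48 hours. GI50 is the concentration that inhibits growth by half. TGI is the concentration that stops growth completely.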

What all share (assay): NCI tumour cell line growth inhibition, 48 h
For assay [1], the system named is MDA-N.
Assay [2] deals with SNB-78 CNS.
Assay [3] concerns RXF-631 renal.
Assay [4] has as its system DLD-1 colon.
Assay [5] deals with HOP-18 NSCLC.
In assay [6] the test system is DMS 273 small cell lung.
Assay [7] has as its system DMS 114 small cell lung.
Assay [8] has as its system XF 498 CNS.
The test system of assay [9] is LXFL 529 NSCLC.
Assay [10] has as its system P388/ADR leukemia.

For the compound `Cc1c(NC(=O)CCl)c(=O)oc2c(C)c3occc(=O)c3cc12`, the TGI in assay [1] is 31 µM.
In the case of `CN(C)CCNC(=O)c1cccc2nc3ccc4cccnc4c3nc12`, the TGI in assay [2] turned out to be 11.3 µM; in [3], 11.8 µM; in assay [4] it was 8.36 µM; in assay [5], 6.66 µM; in [6], 1.4 µM; in assay [7], 2.12 µM.
As for `O=C1NC(=O)C(=Cc2c3ccccc3cc3ccccc23)C(=O)N1`, the TGI in assay [8], in assay [3], in [9], in [5] and in assay [6] was greater than 100 µM throughout.
Compound `O=C1NC(=O)[C@@]2(CC[C@@H](O)C2)c2ccncc21` yielded a TGI in assay [1] greater than 100 µM.
On to `CC(C)(CN1CCOCC1)C(=O)/C=C/c1ccc(/C=C/C(=O)C(C)(C)CN2CCOCC2)cc1`, for which the TGI was determined as 3.07 µM in assay [2]; 2.84 µM in assay [8]; 3.13 µM in assay [3]; 1.19 µM in assay [4]; 2.59 µM in [9]; 1.87 µM in assay [6]. This compound displayed a TGI in assay [7] of 2.16 µM.
In assay [1], `COC(NC(N)=O)C(=O)O` (stereo not given) yielded a TGI greater than 100 µM.
For the compound `Cc1cc2c(c3nocc13)C(=O)c1ccccc1C2=O`, the TGI in assay [3], in assay [4], in assay [9], in [5], in [6] and in assay [7] was greater than 100 µM in each case.
For the compound `O=C(O)C(Br)C(Br)C(=O)O` (stereo not given), the TGI in [1] was greater than 100 µM.
In the case of `Cc1cc(C)nc(NS(=O)(=O)c2ccc(Nc3c4ccccc4nc4c(C(=O)Nc5ccc(S(=O)(=O)Nc6cc(C)on6)cc5)ccc(Cl)c34)cc2)n1`, the TGI in [2] is greater than 100 µM; in assay [8] it was 36.2 µM; in assay [3], 64.6 µM; in [4], 33.3 µM; in assay [9], 42.4 µM.
`COc1cccc2c1C(=O)c1c(O)c3c(c(O)c1C2=O)C[C@@](O)(C(C)=O)C[C@@H]3OC1CC([N+]([O-])(Cc2ccccc2)Cc2ccccc2)C(O)C(C)O1` (stereo not given in full): the TGI came out at 2.63 µM in assay [8]; 2.93 µM in [3]; 3.22 µM in assay [4]; 2.31 µM in assay [9]; 3.55 µM in assay [5]; 2.64 µM in [7].
Consider `COc1ccc2c3c(c(C(=O)O)oc13)CCC2`, for which the TGI in assay [2], in [8], in assay [4], in assay [9], in [6] and in assay [7] was greater than 100 µM each time.
`COC1CC(C)C(OC)c2cc(O)cc(c2O)NC(=O)/C(C)=C/C=C\C(C)C(OC(N)=O)/C(C)=C\C(C)C1OC` (stereo not given): the TGI in assay [2] is 18.3 µM; in assay [10], 18.2 µM; in assay [4], 10.5 µM and 11.2 µM; in assay [9], 7.64 µM; in assay [5], 16.5 µM; in assay [6] it was 0.905 µM and 6.33 µM. Besides, the TGI is 13.3 µM and 6.75 µM in [1]; 23.2 µM and 5.28 µM in [7]. The GI50 in assay [4] was 4.65 µM and 5.28 µM; in [7], 0.202 µM.
In assay [1], `CCOc1cc(C(=O)O)c2c(ccc3ccc(OC)c(OC)c32)c1OC` gave a TGI greater than 100 µM.
`Cc1c(N)nc([C@H](CC(N)=O)NC[C@H](N)C(N)=O)nc1C(=O)N[C@H](C(=O)N[C@H](C)[C@@H](O)CC(=O)N[C@H](C(=O)NC(O[C@@H]1O[C@@H](C)[C@@H](N)[C@@H](O)[C@H]1O)C(O)c1nc(-c2nc(C(=O)NCCCCN)cs2)cs1)[C@@H](C)O)[C@@H](O[C@@H]1O[C@@H](CO)[C@@H](O)[C@H](O)[C@@H]1O[C@H]1O[C@H](CO)[C@@H](O)[C@H](OC(N)=O)[C@@H]1O)c1c[nH]cn1` (stereo not given in full) came in with a TGI in assay [1] greater than 50 µM.
For `CC1(C)OC2CC3COC(=O)C3CC2O1` (stereo not given), the TGI in assay [2], in assay [3], in [4], in [9], in [5] and in assay [6] was greater than 100 µM in each case. In addition, in [7], the TGI was greater than 100 µM.
`CCN(CC)CCC(=O)OC1C(C)=CC(C)C(=O)CC(C(C)CC2CCC(O)C(OC)C2)OC(=O)C2CCCCN2C(=O)C(=O)[C@@]2(O)OC(CCC2C)CC(OC)\C(C)=C/C=C/C=C/C(C)CC(C)C(=O)C1OC` (stereo not given in full) had a TGI in [1] of 21.7 µM.
The same measure, in the same setting: the value for `O=C1NC(O)c2ccccc2O1` (stereo not given) was greater than 100 µM.
In assay [1], `CCNc1cc2oc(=O)cc(C(F)(F)F)c2cc1C` yielded a TGI greater than 100 µM.
Turning to `CSC(=Nc1ccccc1Cl)NC(=O)c1ccc(Br)cc1`, the TGI in assay [2] is 88.6 µM; in assay [8] it was greater than 100 µM; in assay [4], greater than 100 µM; in assay [9] it was greater than 100 µM; in assay [5], 94.1 µM; in assay [7], greater than 100 µM.
As to `CCN(CCCl)CCCCCNc1c2ccccc2nc2ccc(OC)cc12`, the TGI came to 8.57 µM in assay [2]; 1.36 µM in assay [8]; 2.95 µM in assay [4]; 1.93 µM in assay [9]; 1.78 µM in [6]; 1.91 µM in assay [7].
`NCCOCn1cc(Cc2cccc(OCc3ccccc3)c2)c(=O)[nH]c1=O`: the TGI in assay [2], in assay [4], in [9], in assay [5], in [6] and in assay [7] was greater than 100 µM each time.
For the compound `CCCN(CCC)CCc1cc(C(C)=O)n(S(=O)(=O)c2ccc(C)cc2)c1`, the TGI in assay [2], in [4], in [9], in [5], in assay [6] and in assay [7] was greater than 100 µM in each case.
Turning to `O=C(O)C1CCN(Cc2oc(CO)cc(=O)c2O)C1` (stereo not given), the TGI in assay [1] was greater than 100 µM.
In the case of `O=C(O)/C=C/c1ccc[c]([Sb](=[O])([OH])[OH])c1`, in assay [1], the GI50 was greater than 100 µM and the TGI is greater than 100 µM.
As for `COC1(OC)C2(Cl)C(Cl)=C(Cl)C1(Cl)C1c3ccc(C(C)=O)c4cccc(c34)C12` (stereo not given), the TGI is greater than 100 µM in [2]; greater than 100 µM in assay [9]; greater than 100 µM in assay [5]; 20.9 µM in assay [6]; 86.6 µM in assay [1]; greater than 100 µM in assay [7].
